# Experimental data reported in patent publication US9828605B2, “Composition for enhancing radiation sensitivity comprising PI4K isozyme inhibitor” (Seoul National University R&DB Foundation, priority 2015, dated 2017).
# Experiments:
# [1] = tested on: U251 cell line; assay: colony formation assay after antiviral drug treatment and irradiation, U251; assay type: cell-based; settings: drug concentrations determined as 100 nM, 200 nM and 30 μM, FIGS. 5 to 7
# Protocol: (§1) First, after 48 hours of siRNA transduction of Example 2, the cells were collected and 500 with 0 Gy, 1,000 with 2 Gy, 2,000 with 4 Gy, and 4,000 with 6 Gy cells were cultured on a plate according to a radiation dose. After it was checked that the cells were stably attached to a culture dish, radiation was treated with a radiation dose rate of 2.46 Gy per minute by 4 MV X-ray by using a linear accelerator, and the cells were cultured for about 14 days to 23 days until cell colonies were checked with the naked eye. The formed colonies were fixed with 100% methanol and then dyed with 0.5% crystal violet, and surviving fraction was calculated by counting the number of colonies including at least 50 cells. In the surviving fraction, an average of the number of cell colonies in three wells for each radiation dose was shown according to a linear-quadratic model using Kaleidagraph version 3.51 (Synergy Software, Reading, Pa.), and the result was illustrated in FIG. 2.
# (§2) As the hepatitis anti-C virus drug, simeprevir (Olysio) (Janssen Pharmaceutica), sofosbuvir (sovaldi) (Gilead), and daclatasvir (Daklinza) (Bristol-Myers Squibb) were used. […]
# (§3) After the determined amount of drug was treated in the brain tumor and breast cancer cell lines, the colony formation assay was performed by the same method as Experimental Example 1, and the result was illustrated in FIGS. 5 to 7.
# [2] = tested on: BT-474 cell line; assay: colony formation assay after antiviral drug treatment and irradiation, BT-474; assay type: cell-based, human; settings: drug concentrations determined as 100 nM, 200 nM and 30 μM, FIGS. 5 and 6
# Protocol: as §1, §2, §3
# [3] = tested on: phosphorylation of PKC and AKT; assay: immune blotting of phosphorylation after simeprevir treatment, U251; assay type: cell-based; settings: 24-72 hours of drug treatment, FIG. 5 right panel
# Protocol: Simeprevir used as a hepatitis anti-C virus drug was treated and phosphorylation was verified through immune blotting after 24-72 hours of drug treatment. The result was illustrated in FIG. 5 (right panel).
# [4] = tested on: human breast cancer cell lines BT-474; assay: tumor xenograft model in vivo with radiation irradiation; parameters: species or system BALB/c athymic nude mouse; settings: simeprevir 10 mg/Kg to peritoneal cavity three times a week for two weeks + radiation 9 Gy (3 Gy three times a week); compared with other groups; FIG. 9
# Protocol: In order to form a tumor xenograft model in vivo, 5×10^6 human breast cancer cell lines BT-474 were injected to a hind leg of a BALB/c athymic nude mouse. After 3 weeks, it was verified that the tumor was uniformly grown, and the mouse was randomly assigned to four groups of a control group, a simeprevir group, a radiation irradiation group, and a simeprevir+radiation irradiation group. The simeprevir was administrated to peritoneal cavity with a concentration of 10 mg/Kg three times a week for two weeks, and the radiation was irradiated with 9 Gy three times a week by 3 Gy by electron beam of 6 MeV while covering 1 cm bolus. After the entire treatment was finished, the size of the tumor was measured at an interval of about 1 week, and the result was illustrated in FIG. 9.
SMILES,sensitivity to radiation (colony formation assay) [1],sensitivity to radiation (colony formation assay) [2],phosphorylation of AKT [3],phosphorylation of PKC [3],growth of the tumor [4]
COc1ccc2c(O[C@@H]3C[C@H]4C(=O)N[C@]5(C(=O)NS(=O)(=O)C6CC6)C[C@H]5/C=C\CCCCN(C)C(=O)[C@@H]4C3)cc(-c3nc(C(C)C)cs3)nc2c1C [simeprevir],enhanced,enhanced,reduction,reduction,significantly inhibited
CC(C)OC(=O)[C@H](C)N[P@](=O)(OC[C@H]1O[C@@H](n2ccc(=O)[nH]c2=O)[C@](C)(F)[C@@H]1O)Oc1ccccc1 [sofosbuvir],enhanced,enhanced,–,–,–
